From patent publication US6818643B1, “Neurotrophic bicyclic diamides” (Bristol-Myers Squibb Company, priority 1999, dated 2004) come the findings set out here.

In the assay the target is FKBP12 (Homo sapiens, UniProt P62942). Kind of assay: Fluorescence Polarization (FP) Assay of FKBP12 Binding. To be noted: for inhibition at 1 µM: read-out: % FP inhibition at 1 μM; for Ki: rotamase Ki derived from FP assay. The protocol: Fluorescence Polarization (FP) Assay of FKBP12 Binding
The buffer (25 mM HEPES, 100 mM sodium chloride, pH 7.5) with pre-mixed enzyme and fluorescent ligand is distributed into wells (190 μL/well). Inhibitors are added as 10 μL of a 10% dimethylsulfoxide solution in the same buffer. FP is measured with an excitation wavelength of 485 nm and emission wavelength of 520 nm.
In general terms: Polarisation of emitted light reports the rotation of a fluorescent probe.

Where [1] appears, read: Table 1, 1 μM compound, 100 nM fluorescent ligand, 200 nM FKBP12.
Setting [2] is: Table 2, 1 μM compound, 100 nM fluorescent ligand, 200 nM FKBP12.

Where two headings read alike, the source gives them in different places.

Chain of FKBP12 (P62942 whole entry, species assumed): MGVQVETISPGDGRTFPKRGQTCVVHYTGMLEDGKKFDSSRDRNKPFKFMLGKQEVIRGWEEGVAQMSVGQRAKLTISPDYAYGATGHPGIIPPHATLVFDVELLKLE

One may read the inhibition as how much of the control response was suppressed. For `COc1cc(C(=O)C(=O)N2C3CCC2C(=O)N(CCCOc2cccnc2)C3)cc(OC)c1OC` [Example 8, (1S,5R)-8-(3,4,5-Trimethoxyphenyl)oxalyl-3,8-diaza-3-(3-(3-pyridyloxy)propyl)-bicyclo[3.2.1]octan-2-one], under setting [1], the inhibition at 1 µM was determined as 98%.

The Ki is a measure of affinity in units of concentration, obtained from inhibition or displacement. As for `COc1ccc(CCCC(CCCc2ccc(OC)c(OC)c2)CN2CC3CCCC(C2=O)N3C(=O)C(=O)c2cc(OC)c(OC)c(OC)c2)cc1OC` (stereo not shown) [Example 24, 9-(3,4,5-Trimethoxyphenyl)oxalyl-3,9-diaza-3-[5-(3,4-dimethoxyphenyl)-2-(3-(3,4-dimethoxy-phenyl)propyl)pentyl]bicyclo-[3.3.1]nonan-2-one], the affinity (Table 2), expressed as Ki, was 21 nM. For `COc1cc(CCCN2CC3CCCC(C2=O)N3C(=O)C(=O)c2cc(OC)c(OC)c(OC)c2)cc(OC)c1OC` (stereo not shown) [Example 15, 9-(3,4,5-Trimethoxyphenyl)oxalyl-3,9-diaza-3-[3-(3,4,5-trimethoxyphenyl)propyl]bicyclo[3.3.1]nonan-2-one], under setting [1], the inhibition at 1 µM is 44%. Besides, under “Table 1”, the affinity corresponds to a Ki of 100 nM.

For `COc1cc(C(F)(F)C(=O)N2C3CCC2C(=O)N(CC(CCCc2ccccc2)CCCc2ccccc2)C3)cc(OC)c1OC` [Example 33, (1S,5R)-8-(3,4,5-Trimethoxyphenyl)difluoroacetyl-3,8-diaza-3-[5-phenyl-2-(3-phenyl-propyl)pentyl]bicyclo[3.2.1]-octan-2-one], under setting [2], the inhibition at 1 µM was found to be 7%. On to `COc1ccc(CCC(CCc2ccccc2)CN2CC3CCCC(C2=O)N3C(=O)C(=O)c2cc(OC)c(OC)c(OC)c2)cc1OC` (stereo not shown) [Example 26, 9-(3,4,5-Trimethoxyphenyl)oxalyl-3,9-diaza-3-[4-(3,4-dimethoxyphenyl)-2-(2-phenylethyl)butyl]-bicyclo[3.3.1]nonan-2-one], for which the affinity (Table 2) corresponds to a Ki of 51 nM. This lies in the double-digit nanomolar range. Where the note is “Table 2”, `COc1ccc(CCCC(CCCc2ccc(OC)c(OC)c2)CN2C[C@H]3CC[C@@H](C2=O)N3C(=O)C(=O)c2cc(OC)c(OC)c(OC)c2)cc1OC` [Example 12, (1S,5R)-8-(3,4,5-Trimethoxyphenyl)oxalyl-3,8-diaza-3-[5-(3,4-dimethoxyphenyl)-2-(3-(3,4-dimethoxyphenyl)propyl)pentyl]bicyclo[3.2.1]octan-2-one] came in with an inhibition constant (Ki) of 47 nM.

Consider `COc1cc(C(=O)C(=O)N2C3CCC2C(=O)N(CCCO)C3)cc(OC)c1OC` [Example 42, (1S,5R)-8-(3,4,5-trimethoxyphenyl)oxalyl-3,8-diaza-3-(3-hydroxypropyl)bicyclo[3.2.1]octan-2-one], for which the inhibition at 1 µM under setting [1] worked out at 19%.

`COc1cc(C(=O)C(=O)N2C3CCCC2C(=O)N(CCCc2ccccc2)C3)cc(OC)c1OC` (stereo not shown) [Example 18, 9-(3,4,5-Trimethoxyphenyl)oxalyl-3,9-diaza-3-(3-phenylpropyl)bicyclo[3.3.1]nonan-2-one] returned an inhibitory constant (Ki) (Table 1) of 60 nM. In the case of `COc1ccc(CCCCN2CC3CCCC(C2=O)N3C(=O)C(=O)c2cc(OC)c(OC)c(OC)c2)cc1OC` (stereo not shown) [Example 17, 9-(3,4,5-Trimethoxyphenyl)oxalyl-3,9-diaza-3-[4-(3,4-dimethoxyphenyl)butyl]bicyclo[3.3.1]-nonan-2-one], the inhibition at 1 µM under setting [1] stood at 79%. This compound displayed an inhibitory constant (Ki) (Table 1) of 140 nM. For `COc1cc(C(=O)C(=O)N2C3CCCC2C(=O)N(CCCCc2ccccc2)C3)cc(OC)c1OC` (stereo not shown) [Example 19, 9-(3,4,5-Trimethoxyphenyl)oxalyl-3,9-diaza-3-(4-phenylbutyl)bicyclo[3.3.1]nonan-2-one], the inhibition constant Ki (Table 1) amounted to 85 nM. For the setting “Table 2”, `COc1ccc(CCC(Cc2ccc(OC)c(OC)c2)CN2CC3CCCC(C2=O)N3C(=O)C(=O)c2cc(OC)c(OC)c(OC)c2)cc1OC` (stereo not shown) [Example 25, 9-(3,4,5-Trimethoxyphenyl)oxalyl-3,9-diaza-3-[4-(3,4-dimethoxyphenyl)-2-((3,4-dimethoxy-phenyl)methyl)butyl]bicyclo-[3.3.1]nonan-2-one] came in with a Ki of 18 nM. For `CCC(C)(C)C(=O)C(=O)N1C2CCC1C(=O)N(CCCc1cc(OC)c(OC)c(OC)c1)C2` (stereo not shown) [Example 39, 1-{3,8-Diaza-2-oxo-3-[3-(3,4,5-trimethoxyphenyl)propyl]bicyclo[3.2.1]oct-8-yl}-3,3-dimethylpentane-1,2-dione], the inhibition at 1 µM under setting [1] amounted to 4%.

Take `COc1cc(CCCC(CCCc2ccccc2)CN2CC3CCC(C2=O)N3C(=O)C(=O)c2cc(OC)c(OC)c(OC)c2)cc(OC)c1OC` [Example 11, (1S,5R)-8-(3,4,5-Trimethoxyphenyl)oxalyl-3,8-diaza-3-[2-(3-phenylpropyl)-5-(3,4,5-trimethoxyphenyl)pentyl]bicyclo[3.2.1]octan-2-one]: the inhibition at 1 µM under setting [2] came out at 17%. Consider `COc1ccc(CCCC(CCCc2ccccc2)N2CC3CCCC(C2=O)N3C(=O)C(=O)c2cc(OC)c(OC)c(OC)c2)cc1OC` (stereo not shown) [Example 21, 9-(3,4,5-Trimethoxyphenyl)oxalyl-3,9-diaza-3-[4-(3,4-dimethoxyphenyl)-1-(3-phenylpropyl)butyl]bicyclo[3.3.1]nonan-2-one], for which the inhibition at 1 µM under setting [2] is 1%.

In turn, `COc1ccc(CCC(CCc2ccccc2)CN2C[C@H]3CC[C@@H](C2=O)N3C(=O)C(=O)c2cc(OC)c(OC)c(OC)c2)cc1OC` (stereo partly drawn) [Example 14, (1S,5R)-8-(3,4,5-Trimethoxyphenyl)oxalyl-3,8-diaza-3-[4-(3,4-dimethoxyphenyl)-2-(2-phenylethyl)butyl]-bicyclo[3.2.1]octan-2-one] displayed an inhibitory constant (Ki) (Table 2) of 169 nM. `CCC(C)(C)C(=O)C(=O)N1C2CCCC1C(=O)N(CCCc1cc(OC)c(OC)c(OC)c1)C2` (stereo not shown) [Example 41, 1-{3,9-Diaza-2-oxo-3-[3-(3,4,5-trimethoxyphenyl)propyl]bicyclo[3.3.1]non-9-yl}-3,3-dimethylpentane-1,2-dione]: the inhibition at 1 µM under setting [1] is 4%. On to `COc1ccc(CCC(Cc2ccc(OC)c(OC)c2)CN2C[C@H]3CC[C@@H](C2=O)N3C(=O)C(=O)c2cc(OC)c(OC)c(OC)c2)cc1OC` (stereo partly drawn) [Example 13, (1S,5R)-8-(3,4,5-Trimethoxyphenyl)oxalyl-3,8-diaza-3-[4-(3,4-dimethoxyphenyl)-2-((3,4-dimethoxyphenyl)methyl)butyl]bicyclo[3.2.1]octan-2-one], for which the Ki (Table 2) is 122 nM. `COc1cc(CCCN2C[C@H]3CC[C@@H](C2=O)N3C(=O)C(=O)c2cc(OC)c(OC)c(OC)c2)cc(OC)c1OC` [Example 6, (1S,5R)-8-(3,4,5-Trimethoxyphenyl)oxalyl-3,8-diaza-3-[3-(3,4,5-trimethoxyphenyl)propyl]bicyclo[3.2.1]octan-2-one]: the inhibition at 1 µM under setting [1] was found to be 47%. Moreover, for the setting “Table 1”, the Ki worked out at 242 nM. In the case of `COc1ccc(CCCN2CC3CCCC(C2=O)N3C(=O)C(F)(F)c2cc(OC)c(OC)c(OC)c2)cc1OC` (stereo not shown) [Example 35, 9-(3,4,5-Trimethoxyphenyl)difluoroacetyl-3,9-diaza-3-[3-(3,4-dimethoxyphenyl)propyl]bicyclo[3.3.1]nonan-2-one], the inhibition at 1 µM stood at 47%. Also, the inhibition constant (Ki) (Table 1) came to 360 nM.

With `COc1cc(CCCN2C[C@H]3CC[C@@H](C2=O)N3C(=O)C(F)(F)c2cc(OC)c(OC)c(OC)c2)cc(OC)c1OC` [Example 31, (1S,5R)-8-(3,4,5-Trimethoxyphenyl)difluoroacetyl-3,8-diaza-3-[3-(3,4,5-trimethoxyphenyl)propyl]bicyclo[3.2.1]octan-2-one], the inhibition at 1 µM worked out at 19%. For the same compound, the affinity (Table 1), expressed as Ki, was 598 nM. For `COc1ccc(CCCN2C[C@H]3CC[C@@H](C2=O)N3C(=O)C(=O)c2cc(OC)c(OC)c(OC)c2)cc1OC` [Example 3, (1S,5R)-8-(3,4,5-Trimethoxyphenyl)oxalyl-3,8-diaza-3-[3-(3,4-dimethoxyphenyl)propyl]bicyclo[3.2.1]octan-2-one], the inhibition at 1 µM under setting [1] is 26%. The Ki (Table 1) was 380 nM. With `COc1ccc(CCCCN2CC3CCC(C2=O)N3C(=O)C(=O)c2cc(OC)c(OC)c(OC)c2)cc1OC` [Example 4, (1S,5R)-8-(3,4,5-Trimethoxyphenyl)oxalyl-3,8-diaza-3-[4-(3,4-dimethoxyphenyl)butyl]bicyclo[3.2.1]octan-2-one], the inhibition at 1 µM under setting [1] is 15%.

Regarding `COc1cc(C(=O)C(=O)N2C3CCC2C(=O)N(CC(CCCc2ccccc2)CCCc2ccccc2)C3)cc(OC)c1OC` [Example 10, (1S,5R)-8-(3,4,5-Trimethoxyphenyl)oxalyl-3,8-diaza-3-[5-phenyl-2-(3-phenyl-propyl)pentyl]bicyclo[3.2.1]-octan-2-one], under setting [2], the inhibition at 1 µM came out at 14%.

As to `COc1cc(C(=O)C(=O)N2C3CCCC2C(=O)N(CC(CCCc2ccccc2)CCCc2ccccc2)C3)cc(OC)c1OC` (stereo not shown) [Example 22, 9-(3,4,5-Trimethoxyphenyl)oxalyl-3,9-diaza-3-[5-phenyl-2-(3-phenylpropyl)pentyl]bicyclo[3.3.1]nonan-2-one], under setting [2], the inhibition at 1 µM is 17%. For the compound `COc1ccc(CCCC(CCCc2ccccc2)N2CC3CCC(C2=O)N3C(=O)C(=O)c2cc(OC)c(OC)c(OC)c2)cc1OC` [Example 9, (1S,5R)-8-(3,4,5-Trimethoxyphenyl)oxalyl-3,8-diaza-3-[4-(3,4-dimethoxyphenyl)-1-(3-phenylpropyl)butyl]bicyclo[3.2.1]octan-2-one], the inhibition at 1 µM under setting [2] is 1%.

With `COc1ccc(CCCN2CC3CCC(C2=O)N3C(=O)C(F)(F)c2cc(OC)c(OC)c(OC)c2)cc1OC` [Example 28, (1S,5R)-8-(3,4,5-Trimethoxyphenyl)difluoroacetyl-3,8-diaza-3-[3-(3,4-dimethoxyphenyl)propyl]bicyclo[3.2.1]octan-2-one], the inhibition at 1 µM under setting [1] amounted to 13%. As to `COc1ccc(CCCN2CC3CCCC(C2=O)N3C(=O)C(=O)c2cc(OC)c(OC)c(OC)c2)cc1OC` (stereo not shown) [Example 16, 9-(3,4,5-Trimethoxyphenyl)oxalyl-3,9-diaza-3-[3-(3,4-dimethoxyphenyl)propyl]bicyclo[3.3.1]nonan-2-one], the inhibition at 1 µM under setting [1] was 76%. Besides, the inhibition constant Ki (Table 1) came out at 150 nM.
